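Assay format: 96-well plates, 48-hour exposure. TGI: total growth inhibition.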
Each compound was assayed on MDA-MB-435 (assay: NCI tumour cell line growth inhibition, 48 h).
With COC(=O)C1=C(O)c2ccc(Cl)cc2S(=O)(=O)N1C the TGI was greater than 100 µM.
Compound C=C(Nc1nc2ccc(C)cc2s1)C(=O)C(CC)C(=O)C(CC)CC1C(=O)NC(=O)NC1=O (configuration not stated) has a TGI greater than 100 µM.
Compound CCOC(=O)[C@H](C)OC(=O)[C@@](C)(NC(=O)c1ccccc1C(=O)OC)[C@@H]1NC=C(C(=O)OC)CS1 has a TGI of 85.6 µM.
Cn1c2ccccc2c(=O)c2cccc(C(=O)NC(CS)C(=O)O)c21 (configuration not stated) showed a TGI greater than 100 µM.
COc1ccc(N=NC(=O)NC(CC(C)C)C(=O)NC(C)C(=O)O)cc1 (configuration not stated) showed a TGI greater than 100 µM.
With CC(=O)OCC1OC(n2c(C)cc(C)c(C#N)c2=S)C(OC(C)=O)C(OC(C)=O)C1OC(C)=O (configuration not stated) the TGI was greater than 100 µM.
Work on COC(=O)NC(C(F)(F)F)(C(F)(F)F)P1(=O)OCCCO1 yielded a TGI of 46.1 µM.
CCOC(=O)NNC(=O)NCCCCNC(=O)NNC(=O)OCC showed a TGI greater than 100 µM.
For COC(=O)c1nsc(OC)c1Cl, the TGI was greater than 100 µM.
Compound Cc1c2cccc-2c(OCCO)cc2c3ccccc3n(C)c12 has a TGI of 25.2 µM.
c1ccc2c(c1)SCCC2NC1=NCCO1 (configuration not stated) was tested, and the TGI was greater than 100 µM.
Compound C=CCN(C(=O)CNC(=O)C(F)(F)F)c1cc(OCc2ccccc2)c2c(c1)c(C)cn2S(=O)(=O)c1ccccc1 has a TGI greater than 100 µM.
Compound COC1=C(Br)[C@H](O)[C@@]2(C=C1Br)CC(C(=O)NCCCOc1c(Br)cc(C(O)CNC(C)=O)cc1Br)=NO2 (some centres not stated) has a TGI of 5.12 µM.
With COc1ccc(C[C@H]2COC(=O)[C@@H]2Cc2cccc(Br)c2)cc1OC the TGI was 56.9 µM.
CSc1ccsc1-c1sc(-c2cc(SC)c(-c3sc(-c4cc(SC)c(-c5sccc5SC)s4)cc3SC)s2)cc1SC gave a TGI of 56.5 µM.
In the case of COc1cccc(C2c3cc4c(cc3OC(C)(N3CCCC3)C2C)OCO4)c1 (configuration not stated), the TGI is reported as 32.9 µM.
With CCSC1=N/C(=C\c2ccc(N(C)C)cc2)C(Cl)=N1 the TGI was greater than 100 µM.
COC1(OC)CCCc2c1no[n+]2[O-] showed a TGI greater than 100 µM.
Compound CC1=C(/C=C/C(C)=C/C=C/C(C)=C/C(=O)OC2CC(n3cc(F)c(=O)[nH]c3=O)OC2CO)C(C)(C)CCC1 (configuration not stated) has a TGI of 25.2 µM.
In the case of CC(C)C(C/C=C1\CC(CO)(COC(=O)C(C)(C)C)OC1=O)C(C)C (configuration not stated), the TGI is reported as 25.3 µM.
O=C1C=C(NCCOCCO)C(=O)c2c(O)ccc(O)c21 gave a TGI of 32.6 µM.
Compound CC(C)[Si]1(C(C)C)OCC2OC3(CO)C(Oc4nc(=O)ccn43)C2O[Si](C(C)C)(C(C)C)O1 (configuration not stated) has a TGI of 31.4 µM.

What follows are compounds tested on A498 renal (assay: NCI tumour cell line growth inhibition, 48 h).
For CCOC(=O)c1nc2cc(F)c(N3CCOCC3)cc2[nH]c1=O, the TGI was greater than 100 µM.
CCCC(=O)N1CCN(c2ccc3c(c2)OC(C)O3)CC1 (configuration not stated) was tested, and the TGI was greater than 100 µM.
Work on COC(=O)C1=C(O)c2ccc(Cl)cc2S(=O)(=O)N1C yielded a TGI greater than 100 µM.
With CCOC(=O)[C@H](C)OC(=O)[C@@](C)(NC(=O)c1ccccc1C(=O)OC)[C@@H]1NC=C(C(=O)OC)CS1 the TGI was greater than 100 µM.
For Cn1c2ccccc2c(=O)c2cccc(C(=O)NC(CS)C(=O)O)c21 (configuration not stated), the TGI was greater than 100 µM.
COc1ccc(N=NC(=O)NC(CC(C)C)C(=O)NC(C)C(=O)O)cc1 (configuration not stated) gave a TGI greater than 100 µM.
Compound CC(=O)OCC1OC(n2c(C)cc(C)c(C#N)c2=S)C(OC(C)=O)C(OC(C)=O)C1OC(C)=O (configuration not stated) has a TGI greater than 100 µM.
COC(=O)NC(C(F)(F)F)(C(F)(F)F)P1(=O)OCCCO1 gave a TGI of 38 µM.
CCOC(=O)NNC(=O)NCCCCNC(=O)NNC(=O)OCC was tested, and the TGI was greater than 100 µM.
Work on Cc1c2cccc-2c(OCCO)cc2c3ccccc3n(C)c12 yielded a TGI of 24 µM.
c1ccc2c(c1)SCCC2NC1=NCCO1 (configuration not stated) gave a TGI greater than 100 µM.
In the case of COC1=C(Br)[C@H](O)[C@@]2(C=C1Br)CC(C(=O)NCCCOc1c(Br)cc(C(O)CNC(C)=O)cc1Br)=NO2 (some centres not stated), the TGI is reported as greater than 10 µM.
CSc1ccsc1-c1sc(-c2cc(SC)c(-c3sc(-c4cc(SC)c(-c5sccc5SC)s4)cc3SC)s2)cc1SC showed a TGI greater than 100 µM.
With COc1cccc(C2c3cc4c(cc3OC(C)(N3CCCC3)C2C)OCO4)c1 (configuration not stated) the TGI was 85.3 µM.
CCSC1=N/C(=C\c2ccc(N(C)C)cc2)C(Cl)=N1 was tested, and the TGI was greater than 100 µM.
In the case of COC1(OC)CCCc2c1no[n+]2[O-], the TGI is reported as greater than 100 µM.
Work on CC(C)C(C/C=C1\CC(CO)(COC(=O)C(C)(C)C)OC1=O)C(C)C (configuration not stated) yielded a TGI of 28.7 µM.
O=C1C=C(NCCOCCO)C(=O)c2c(O)ccc(O)c21 showed a TGI greater than 100 µM.

What follows are compounds tested on OVCAR-4 ovarian (assay: NCI tumour cell line growth inhibition, 48 h).
In the case of Cn1c2c(c3ccccc31)CCN1C(=O)CN(C(=O)C3CCCCC3)CC21 (configuration not stated), the TGI is reported as greater than 100 µM.
For CCOC(=O)c1nc2cc(F)c(N3CCOCC3)cc2[nH]c1=O, the TGI was greater than 100 µM.
CCCC(=O)N1CCN(c2ccc3c(c2)OC(C)O3)CC1 (configuration not stated) gave a TGI greater than 100 µM.
COC(=O)C1=C(O)c2ccc(Cl)cc2S(=O)(=O)N1C was tested, and the TGI was greater than 100 µM.
In the case of C=C(Nc1nc2ccc(C)cc2s1)C(=O)C(CC)C(=O)C(CC)CC1C(=O)NC(=O)NC1=O (configuration not stated), the TGI is reported as greater than 100 µM.
For CCOC(=O)[C@H](C)OC(=O)[C@@](C)(NC(=O)c1ccccc1C(=O)OC)[C@@H]1NC=C(C(=O)OC)CS1, the TGI was greater than 100 µM.
In the case of Cn1c2ccccc2c(=O)c2cccc(C(=O)NC(CS)C(=O)O)c21 (configuration not stated), the TGI is reported as greater than 100 µM.
Compound COc1ccc(N=NC(=O)NC(CC(C)C)C(=O)NC(C)C(=O)O)cc1 (configuration not stated) has a TGI greater than 100 µM.
In the case of CC(=O)OCC1OC(n2c(C)cc(C)c(C#N)c2=S)C(OC(C)=O)C(OC(C)=O)C1OC(C)=O (configuration not stated), the TGI is reported as greater than 100 µM.
COC(=O)NC(C(F)(F)F)(C(F)(F)F)P1(=O)OCCCO1 was tested, and the TGI was greater than 100 µM.
For COC(=O)c1nsc(OC)c1Cl, the TGI was greater than 100 µM.
Cc1c2cccc-2c(OCCO)cc2c3ccccc3n(C)c12 showed a TGI of 15.1 µM.
With c1ccc2c(c1)SCCC2NC1=NCCO1 (configuration not stated) the TGI was greater than 100 µM.
Compound C=CCN(C(=O)CNC(=O)C(F)(F)F)c1cc(OCc2ccccc2)c2c(c1)c(C)cn2S(=O)(=O)c1ccccc1 has a TGI greater than 100 µM.
COC1=C(Br)[C@H](O)[C@@]2(C=C1Br)CC(C(=O)NCCCOc1c(Br)cc(C(O)CNC(C)=O)cc1Br)=NO2 (some centres not stated) was tested, and the TGI was greater than 10 µM.
In the case of COc1ccc(C[C@H]2COC(=O)[C@@H]2Cc2cccc(Br)c2)cc1OC, the TGI is reported as 58 µM.
Compound CSc1ccsc1-c1sc(-c2cc(SC)c(-c3sc(-c4cc(SC)c(-c5sccc5SC)s4)cc3SC)s2)cc1SC has a TGI greater than 100 µM.

— PubChem BioAssay (NCI)
